From PubChem BioAssay AID1259407 (Chemical Carcinogenesis Research Information System (CCRIS), 2018)
Active and inactive are the calls of the source. No rule for the calls is given here.

System: CCRIS mutagenicity, Ames/micronucleus/aberration tests
Test: CCRIS mutagenicity studies
[1] = Test System: AMES SALMONELLA TYPHIMURIUM, Strain/Indicator: TA98, Metabolic Activation: NONE, Method: STANDARD PLATE
[2] = Test System: AMES SALMONELLA TYPHIMURIUM, Strain/Indicator: TA100, Metabolic Activation: NONE, Method: STANDARD PLATE
[3] = Test System: AMES SALMONELLA TYPHIMURIUM, Strain/Indicator: TA1538, Metabolic Activation: NONE, Method: STANDARD PLATE

Cc1ncc[nH]1
mutagenic call (End Point: IN VIVO MICRONUCLEUS, Test System: BONE MARROW POLYCHROMATIC ERYTHROCYTES, Species: MOUSE, Strain/Sex: B6C3F1/MALE, Route: IP): inactive; negative
mutagenic call (End Point: IN VIVO MICRONUCLEUS, Test System: BONE MARROW POLYCHROMATIC ERYTHROCYTES, Species: RAT, Strain/Sex: F344/N/MALE, Route: IP): inactive; negative
mutagenic call (End Point: IN VIVO MICRONUCLEUS, Test System: PERIPHERAL BLOOD NORMOCHROMATIC ERYTHROCYTES, Species: MOUSE, Strain/Sex: B6C3F1/MALE, FEMALE, Route: ORAL (DIET)): active; positive
mutagenic call (Test System: AMES SALMONELLA TYPHIMURIUM, Strain/Indicator: TA97, Metabolic Activation: HAMSTER, LIVER, S-9, AROCLOR 1254, Method: PREINCUBATION): inactive; negative
mutagenic call (Test System: AMES SALMONELLA TYPHIMURIUM, Strain/Indicator: TA97, Metabolic Activation: NONE, Method: PREINCUBATION): inactive; negative
mutagenic call (Test System: AMES SALMONELLA TYPHIMURIUM, Strain/Indicator: TA97, Metabolic Activation: RAT, LIVER, S-9, AROCLOR 1254, Method: PREINCUBATION): inactive; negative
mutagenic call (Test System: AMES SALMONELLA TYPHIMURIUM, Strain/Indicator: TA98, Metabolic Activation: HAMSTER, LIVER, S-9, AROCLOR 1254 (10%), Method: STANDARD PLATE): inactive; negative
mutagenic call (Test System: AMES SALMONELLA TYPHIMURIUM, Strain/Indicator: TA98, Metabolic Activation: HAMSTER, LIVER, S-9, AROCLOR 1254, Method: PREINCUBATION): inactive; negative
mutagenic call (Test System: AMES SALMONELLA TYPHIMURIUM, Strain/Indicator: TA98, Metabolic Activation: NONE, Method: PREINCUBATION): inactive; negative
mutagenic call [1]: inactive; negative
mutagenic call (Test System: AMES SALMONELLA TYPHIMURIUM, Strain/Indicator: TA98, Metabolic Activation: RAT, LIVER, S-9, AROCLOR 1254 (10%), Method: STANDARD PLATE): inactive; negative
mutagenic call (Test System: AMES SALMONELLA TYPHIMURIUM, Strain/Indicator: TA98, Metabolic Activation: RAT, LIVER, S-9, AROCLOR 1254, Method: PREINCUBATION): inactive; negative
mutagenic call (Test System: AMES SALMONELLA TYPHIMURIUM, Strain/Indicator: TA100, Metabolic Activation: HAMSTER, LIVER, S-9, AROCLOR 1254 (10%), Method: STANDARD PLATE): inactive; negative
mutagenic call (Test System: AMES SALMONELLA TYPHIMURIUM, Strain/Indicator: TA100, Metabolic Activation: HAMSTER, LIVER, S-9, AROCLOR 1254, Method: PREINCUBATION): inactive; negative
mutagenic call (Test System: AMES SALMONELLA TYPHIMURIUM, Strain/Indicator: TA100, Metabolic Activation: NONE, Method: PREINCUBATION): inactive; negative
mutagenic call [2]: inactive; negative
mutagenic call (Test System: AMES SALMONELLA TYPHIMURIUM, Strain/Indicator: TA100, Metabolic Activation: RAT, LIVER, S-9, AROCLOR 1254 (10%), Method: STANDARD PLATE): inactive; negative
mutagenic call (Test System: AMES SALMONELLA TYPHIMURIUM, Strain/Indicator: TA100, Metabolic Activation: RAT, LIVER, S-9, AROCLOR 1254, Method: PREINCUBATION): inactive; negative
mutagenic call (Test System: AMES SALMONELLA TYPHIMURIUM, Strain/Indicator: TA1535, Metabolic Activation: HAMSTER, LIVER, S-9, AROCLOR 1254 (10%), Method: STANDARD PLATE): inactive; negative
mutagenic call (Test System: AMES SALMONELLA TYPHIMURIUM, Strain/Indicator: TA1535, Metabolic Activation: HAMSTER, LIVER, S-9, AROCLOR 1254, Method: PREINCUBATION): inactive; negative
mutagenic call (Test System: AMES SALMONELLA TYPHIMURIUM, Strain/Indicator: TA1535, Metabolic Activation: NONE, Method: PREINCUBATION): inactive; negative
mutagenic call (Test System: AMES SALMONELLA TYPHIMURIUM, Strain/Indicator: TA1535, Metabolic Activation: NONE, Method: STANDARD PLATE): inactive; negative
mutagenic call (Test System: AMES SALMONELLA TYPHIMURIUM, Strain/Indicator: TA1535, Metabolic Activation: RAT, LIVER, S-9, AROCLOR 1254 (10%), Method: STANDARD PLATE): inactive; negative
mutagenic call (Test System: AMES SALMONELLA TYPHIMURIUM, Strain/Indicator: TA1535, Metabolic Activation: RAT, LIVER, S-9, AROCLOR 1254, Method: PREINCUBATION): inactive; negative
mutagenic call (Test System: AMES SALMONELLA TYPHIMURIUM, Strain/Indicator: TA1537, Metabolic Activation: HAMSTER, LIVER, S-9, AROCLOR 1254 (10%), Method: STANDARD PLATE): inactive; negative
mutagenic call (Test System: AMES SALMONELLA TYPHIMURIUM, Strain/Indicator: TA1537, Metabolic Activation: NONE, Method: STANDARD PLATE): inactive; negative
mutagenic call (Test System: AMES SALMONELLA TYPHIMURIUM, Strain/Indicator: TA1537, Metabolic Activation: RAT, LIVER, S-9, AROCLOR 1254 (10%), Method: STANDARD PLATE): inactive; negative
mutagenic call (Test System: AMES SALMONELLA TYPHIMURIUM, Strain/Indicator: TA1538, Metabolic Activation: HAMSTER, LIVER, S-9, AROCLOR 1254 (10%), Method: STANDARD PLATE): inactive; negative
mutagenic call [3]: inactive; negative
mutagenic call (Test System: AMES SALMONELLA TYPHIMURIUM, Strain/Indicator: TA1538, Metabolic Activation: RAT, LIVER, S-9, AROCLOR 1254 (10%), Method: STANDARD PLATE): inactive; negative
mutagenic call (Test System: MOUSE LYMPHOMA, Strain/Indicator: L5178Y (TK+/TK-), Metabolic Activation: NONE, Method: SUSPENSION/PLATE): inactive; negative. reevaluation of results: inconclusive
mutagenic call (Test System: MOUSE LYMPHOMA, Strain/Indicator: L5178Y (TK+/TK-), Metabolic Activation: RAT, LIVER, S-9, AROCLOR 1254, Method: SUSPENSION/PLATE): inactive; negative. reevaluation of results: inconclusive

Nc1ccc2ccc3cccc4ccc1c2c34
mutagenic call (End Point: IN VITRO CHROMOSOMAL ABERRATIONS, Test System: CHINESE HAMSTER LUNG (CHL) CELLS, Metabolic Activation: NONE): inactive; negative
mutagenic call (Test System: AMES SALMONELLA TYPHIMURIUM, Strain/Indicator: TA98(1,8-DNP6), Metabolic Activation: NONE, Method: STANDARD PLATE): active; positive
mutagenic call (Test System: AMES SALMONELLA TYPHIMURIUM, Strain/Indicator: TA98(1,8-DNP6), Metabolic Activation: RAT, LIVER, S-9, AROCLOR 1254, Method: STANDARD PLATE): active; positive
mutagenic call (Test System: AMES SALMONELLA TYPHIMURIUM, Strain/Indicator: TA98(NR), Metabolic Activation: NONE, Method: STANDARD PLATE): active; positive
mutagenic call (Test System: AMES SALMONELLA TYPHIMURIUM, Strain/Indicator: TA98(NR), Metabolic Activation: RAT, LIVER, S-9, AROCLOR 1254, Method: STANDARD PLATE): active; positive
mutagenic call [1]: active; positive
mutagenic call (Test System: AMES SALMONELLA TYPHIMURIUM, Strain/Indicator: TA98, Metabolic Activation: RAT, LIVER, S-9, AROCLOR 1254 (2 OR 4%), Method: STANDARD PLATE): active; positive
mutagenic call [2]: inactive; negative
mutagenic call (Test System: AMES SALMONELLA TYPHIMURIUM, Strain/Indicator: TA100, Metabolic Activation: RAT, LIVER, S-9, AROCLOR 1254 (4%), Method: STANDARD PLATE): inactive; negative
mutagenic call (Test System: AMES SALMONELLA TYPHIMURIUM, Strain/Indicator: TA100, Metabolic Activation: RAT, LIVER, S-9, AROCLOR 1254, Method: STANDARD PLATE): active; positive
mutagenic call (Test System: AMES SALMONELLA TYPHIMURIUM, Strain/Indicator: TA1535, Metabolic Activation: RAT, LIVER, S-9, AROCLOR 1254 (4%), Method: STANDARD PLATE): inactive; negative
mutagenic call (Test System: AMES SALMONELLA TYPHIMURIUM, Strain/Indicator: TA1537, Metabolic Activation: RAT, LIVER, S-9, AROCLOR 1254 (4%), Method: STANDARD PLATE): inactive; negative
mutagenic call (Test System: AMES SALMONELLA TYPHIMURIUM, Strain/Indicator: TA1537, Metabolic Activation: RAT, LIVER, S-9, AROCLOR 1254, Method: STANDARD PLATE): active; positive
mutagenic call [3]: inactive; negative
mutagenic call (Test System: AMES SALMONELLA TYPHIMURIUM, Strain/Indicator: TA1538, Metabolic Activation: RAT, LIVER, S-9, AROCLOR 1254, Method: STANDARD PLATE): active; positive
